Measurements published in ChEMBL document CHEMBL4725415, “First Structure-Activity Relationship Study of Potent BLT2 Agonists as Potential Wound-Healing Promoters” (J Med Chem, 2020).
≈ marks a conversion by molar mass, not a printed value.

What was measured:
[1] = physchem; details: PBS buffer with 1% dimethyl sulfoxide, pH 7.4
[2] = in vitro; details: Sprague-Dawley, rat, liver microsomes

- solubility [1]: 250 µM (≈ 96.9 µg/mL)
- remaining at 1 h, 1000 µM [2]: 66%
Compound: CCCCC(=O)N(Cc1ccc(-c2ccccc2C(=O)O)cc1)c1ccccc1
